These results are taken from ChEMBL document CHEMBL1201862, “PubChem BioAssay data set” (2004).

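These data come from cells grown in 96-well plates and exposed to compound for 48 hours at five concentrations. GI50: concentration for 50% inhibition of growth.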 Activity calls are given as the source filed them. Rule as the data show it: active = GI50 up to about 1.1 µM and inactive = higher.

Among the test systems are UACC-62; SR; A549; HOP-62; OVCAR-3; U-251; IGROV-1; SF-539; TK-10; Malme-3M; HOP-92; CCRF-CEM; HCT-116; EKVX; OVCAR-5; SN12C; SW-620.
What all share (assay): inhibition of tumour cell growth, NCI panel, 48 h

As for `CCCCCCCCOCC(O)CO` (stereo unspecified), the GI50 with UACC-62 is > 100 µM (inactive); in the test on SR, 45.9 µM (inactive); in the test with A549, > 100 µM (inactive); with HOP-62, > 100 µM (inactive); with OVCAR-3, > 100 µM (inactive); in the test on U-251, > 100 µM (inactive). Also, the GI50 was > 100 µM (inactive) in the test on IGROV-1; > 100 µM (inactive) with SF-539; > 100 µM (inactive) in the test on TK-10; > 100 µM (inactive) in the test with Malme-3M; 41.8 µM (inactive) in the test on HOP-92; 4.52 µM (inactive) in the test with CCRF-CEM. Also, the GI50 in the test on HCT-116, in the test on EKVX, in the test on OVCAR-5, in the test with SN12C and with SW-620 was > 100 µM (inactive) throughout.

In the case of `CCOC(=O)CC[C@@H](NC(=O)c1ccc(N[C@@H]2c3cc4c(cc3C(c3cc(OC)c(O)c(OC)c3)C3C(=O)OC[C@@H]32)OCO4)cc1)C(=O)OCC` (stereo partly specified), the GI50 in the test on UACC-62 is 0.0167 µM (active); with SR, > 10 µM (inactive); in the test with A549, 0.0222 µM (active); with HOP-62, 0.0127 µM (active); with OVCAR-3, 0.143 µM (active); in the test with U-251, 0.0175 µM (active). The GI50 was 0.0706 µM (active) in the test on IGROV-1; 0.0157 µM (active) in the test with SF-539; 0.11 µM (active) in the test with TK-10; 0.0995 µM (active) in the test on Malme-3M; 0.0205 µM (active) in the test on HOP-92; 0.00525 µM (active) in the test on CCRF-CEM. For the same compound, the GI50 in the test on EKVX was 0.0251 µM (active); with OVCAR-5, 0.0652 µM (active); in the test on SN12C, 0.0256 µM (active); in the test with SW-620 it was 0.0396 µM (active).

For the compound `C/C(=N/NS(=O)(=O)c1ccccc1)c1cccc[n+]1[O-]`, the GI50 in the test on UACC-62, in the test with SR, with A549, in the test on HOP-62, in the test on OVCAR-3 and with U-251 was > 100 µM (inactive) each time. The GI50 with IGROV-1, with SF-539, in the test with TK-10, in the test on HOP-92, with CCRF-CEM and in the test with HCT-116 was > 100 µM (inactive) each time. Further, the GI50 in the test on EKVX, in the test on OVCAR-5, in the test on SN12C and in the test with SW-620 was > 100 µM (inactive) in each case.

`CC(=O)OC1(Sc2ccccc2)CC2[C@H]3COC(C)(C)O[C@H]3CC[C@@]2(C)CC1=O` (stereo partly specified): the GI50 is 30.1 µM (inactive) in the test on UACC-62; 10 µM (inactive) in the test on SR; 43.2 µM (inactive) in the test with A549; 37.2 µM (inactive) in the test on OVCAR-3; > 10 µM (inactive) in the test on U-251; 21.3 µM (inactive) in the test on IGROV-1. Further, the GI50 is 26.1 µM (inactive) with SF-539; > 100 µM (inactive) in the test on TK-10; 99.3 µM (inactive) in the test with Malme-3M; 45.2 µM (inactive) in the test on HOP-92; 65.3 µM (inactive) in the test with HCT-116; 57.7 µM (inactive) with EKVX. In addition, the GI50 in the test on OVCAR-5 is > 100 µM (inactive); with SN12C, 23.4 µM (inactive); in the test with SW-620, 52.4 µM (inactive).

As for `COC(=O)n1c(CBr)c(Br)c2ccccc21`, the GI50 is 28.1 µM (inactive) with UACC-62; 24.8 µM (inactive) with SR; 40.5 µM (inactive) in the test on A549; 21.2 µM (inactive) in the test on HOP-62; 20.3 µM (inactive) with OVCAR-3; 27 µM (inactive) with U-251. The GI50 with IGROV-1 is 20.9 µM (inactive); in the test with SF-539, 31.3 µM (inactive); with TK-10, 33.1 µM (inactive); with Malme-3M, 79.6 µM (inactive); in the test on HOP-92, 20.1 µM (inactive); with CCRF-CEM, 23.9 µM (inactive). The GI50 is 39.4 µM (inactive) with HCT-116, 30.6 µM (inactive) with OVCAR-5 and 47.2 µM (inactive) in the test with SW-620.

For the compound `CC1O[C@@H]2CCCCC(=O)[C@]2(C)[C@H]1C` (stereo partly specified), the GI50 with UACC-62, in the test on A549, in the test on HOP-62, in the test with OVCAR-3, in the test with U-251 and in the test on IGROV-1 was > 100 µM (inactive) each time. The GI50 with TK-10, in the test on Malme-3M, with HOP-92, in the test on CCRF-CEM, with HCT-116 and with EKVX was > 100 µM (inactive) each time. The GI50 in the test on OVCAR-5, in the test on SN12C and with SW-620 was > 100 µM (inactive) in each case.

Take `Cc1cc(C)c2c(c1)Nc1ccccc1P2c1ccccc1` (stereo unspecified): the GI50 is 28.9 µM (inactive) in the test on UACC-62; 32.1 µM (inactive) with A549; 25.8 µM (inactive) with HOP-62; 24.6 µM (inactive) in the test with OVCAR-3; 31.7 µM (inactive) in the test with U-251; 27.8 µM (inactive) with IGROV-1. Also, the GI50 in the test on TK-10 was 40.2 µM (inactive); in the test on Malme-3M, 24.5 µM (inactive); in the test on HOP-92, 30.9 µM (inactive); with EKVX it was 23.5 µM (inactive); with SN12C, 9.82 µM (inactive); in the test with SW-620, 39.8 µM (inactive).

As for `O=C(Cc1nc2sc3c(c2c(=O)[nH]1)CCCC3)Nc1ccccc1`, the GI50 in the test on UACC-62, in the test on A549, in the test on HOP-62, with OVCAR-3, with U-251 and in the test on IGROV-1 was > 100 µM (inactive) in each case. In addition, the GI50 in the test on SF-539 is 73.6 µM (inactive); in the test on TK-10 it was > 100 µM (inactive); in the test with Malme-3M, > 100 µM (inactive); with HOP-92, > 100 µM (inactive); in the test with CCRF-CEM it was > 100 µM (inactive); in the test with HCT-116, > 100 µM (inactive). Moreover, the GI50 with EKVX, in the test with OVCAR-5, in the test with SN12C and with SW-620 was > 100 µM (inactive) throughout.

Regarding `Cn1nc(-c2cccc(-c3nn(C)/c(=N\CCO)s3)n2)s/c1=N/CCO`, the GI50 in the test with UACC-62, with SR, in the test with A549, in the test on HOP-62, with U-251 and in the test on IGROV-1 was > 100 µM (inactive) each time. Besides, the GI50 with SF-539, in the test on HOP-92, in the test with CCRF-CEM, in the test with HCT-116, with EKVX and with OVCAR-5 was > 100 µM (inactive) in each case. Besides, the GI50 in the test on SN12C and in the test on SW-620 was > 100 µM (inactive) in each case.
